Measurements reported in patent publication US20230165866A1, “CYCLOSERINE AND PENTOXIFYLLINE COMBINATION THERAPY FOR TREATMENT OF DEPRESSION” (NEURORIVE INC, priority 2020, published 2023).

Assays:
mice (C57BL/6) = assay: Forced swimming test (FST); assay type: in vivo, mouse; settings: C57BL/6 mice, oral; DCS alone 10 mg/kg, pentoxifylline alone 80 mg/kg, combination DCS 10 mg/kg + pentoxifylline 10, 20, 80, 160 mg/kg; FST an hour after administration; immobility time in last 4 min of 6 min
Description: In order to test an effect of reducing depression depending on administration of the composite composition of the present invention, mice were performed to a forced swimming test (FST). The FST, which is to measure a coping strategy for acute stress that inevitably occurs, is an animal behavioral experiment commonly used to measure antidepressant effects. To confirm the effect of reducing depression by combined administration of D-cycloserine (DCS) and pentoxifylline (Pen), each group of mice was administered orally with the vehicle (DW 5 ml/kg), DCS (administered alone at 10 mg/kg), pentoxifylline (administered alone at 80 mg/kg) and DCS+pentoxifylline (DCS 10 mg/kg and pentoxifylline 10, 20, 80, 160 mg/kg combination treatment group). After administration, the forced swimming test (FST) that measures depression-like behavior was performed on the mice. Specifically, each mice group (C57BL/6) was individually placed in a 3 L Pyrex beaker (13 cm in diameter, 24 cm in height), and the beakers were filled with 26° C. of water up to a depth of 9 cm. All mice were forced to swim for 6 minutes, and immobility time was measured for the last 4 minutes of the experiment. The immobility time is defined as the […] time taken while the mouse is floating without struggling or taking only the movement required for keeping the mouse's head above the water surface.

mice (C57BL6) = assay: Tail suspension test (TST); assay type: in vivo, mouse; settings: DCS alone 10 mg/kg, pentoxifylline alone 80 mg/kg, combination DCS 10 mg/kg + pentoxifylline 10, 20, 80, 160 mg/kg, TST 1 hour after administration, immobility time over 6 min
Text: In order to test an effect of reducing depression depending on administration of the composite composition of the present invention, mice were subjected to a tail suspension test (TST). The TST, which is to measure a stress in a rodent animal model, is based on the behavior of an experimental animal facing immobile posture in the face of short-term, irreversible stress. In the technical field of the present invention, the TST is used to measure the effect of antidepressant. To confirm the effect of reducing depression by combined administration of D-cycloserine (DCS) and pentoxifylline (Pen), DCS, Pen alone or a composite composition were administered to all groups of mice (C57BL6). Each group of mice was administered with the vehicle (DW 5 ml/kg), DCS (administered alone at 10 mg/kg), pentoxifylline (administered alone at 80 mg/kg), and DCS+pentoxifylline (DCS 10 mg/kg and pentoxifylline 10, 20, 80, 160 mg/kg combination treatment group). After 1 hour, the tail suspension test (TST) that measures depression-like behavior was performed on the mice. […] The experiment started as soon as the mouse was hung, and the immobility time was measured for 6 minutes after the start of the experiment. […]

N[C@@H]1CONC1=O [DCS, D-cycloserine]
immobility in FST compared to the control group administered with the vehicle (mice (C57BL/6)): did not show significantly different in immobility
immobility in TST compared to the control group administered with the vehicle (mice (C57BL6)): did not show statistical significance

CC(=O)CCCCn1c(=O)c2c(ncn2C)n(C)c1=O [pentoxifylline]
immobility in FST compared to the control group administered with the vehicle (mice (C57BL/6)): did not show significantly different in immobility
immobility in TST compared to the control group administered with the vehicle (mice (C57BL6)): did not show statistical significance
